# Experimental data: a melting point compilation (Tetko et al.; mined from patent text by program, amines drawn as free bases though some values may be those of a salt)
row,melting point [°C],SMILES
1,220 to 222,Cn1nc(-c2nc(Br)c(N)nc2-c2ccccc2)ccc1=O
2,183 to 184,O=C(NOCCO)c1cc(F)c(F)c(F)c1Nc1ccc(I)cc1Cl
3,< 20,CCOC(=O)C(C)(C)Oc1ccc(-c2ccc(CCNC(C)=O)cc2)cc1
4,95,Cc1cccc(C)c1NC(=O)c1cc(CO)on1
5,151,CN(C)c1ncc(-c2ccc(Cl)cc2Cl)c(N)n1
6,124 to 126,O=C(Nc1ccc(Cl)cc1)c1cccc(Cl)c1
7,150 to 154,CC(C)(C)n1ncc(OCc2ccc(Oc3ccc(Cl)cc3)nc2)c(Cl)c1=O
8,139 to 140,CC(=O)NCc1ccc(CN2CCN(c3nc(Cl)cc(Cl)n3)CC2)cc1
9,208 to 212,COc1ccc(-c2nc(C(N)=O)c(N)nc2-c2ccccc2)cn1
10,> 290,CCOC(=O)c1[nH]c2cc(Cl)cc(Cl)c2c1NCC(=O)c1ccccc1F
11,83 to 84.5,CCOCn1c(C(F)(F)F)cc(C#N)c1-c1ccc(Cl)cc1
12,186 to 188,O=C(O)CS(=O)c1cccc(-c2nc(=O)c3ccccc3s2)n1 (stereo unspecified)
13,179 to 180,CC(C)(C)OC(=O)Nc1ccc2ccc(S(C)(=O)=O)cc2c1
14,26.7 to 33.1,CCCCNC(=O)CCc1ccccc1
15,148 to 150,OCc1ccc2c(c1)ncn2Cc1ccccc1
16,263,NC(=S)C(c1ccc(Cl)cc1)c1c(Cl)cc(-n2ncc(=O)[nH]c2=O)cc1Cl (stereo unspecified)
17,170 to 172,O=C(O)COc1ccc(SCc2ccc(OCc3ccc(Cl)cc3)cc2)c2c1CCC2
18,211 to 213,COc1cc(OCC(=O)O)c(C)cc1SCc1sc(-c2ccc(C(F)(F)F)cc2)nc1C
19,228,COc1cc2c(Cl)c(C(N)=O)cnc2cc1F
20,178 to 180,CCn1cnc(C(N)=O)c1NC(=S)NC(=O)c1ccccc1
21,85 to 86,Cc1ccc(CN(CCCC(N)=O)Cc2ccc(C)cc2)cc1
22,137,CCOC(=O)NCc1cc(-c2ccc(Cl)cc2)no1
23,236 to 238,COc1ccc(CC2SC(=O)NC2=O)cc1C(=O)NCc1ccc([N+](=O)[O-])cc1 (stereo unspecified)

# Continued, molecule first:
row,SMILES,melting point [°C]
1,COc1cc(NC(N)=S)c(Cl)c(OC)c1,159 to 162
2,O=C(CCS)NC1CCCCC1,73.5 to 75.5
3,C=C1C(=O)OC2OC3(C)CCC4C(C)CCC1C24OO3 (stereo unspecified),161 to 162
4,C=CCNc1nc(NC(C)(C)C)nc2ccc([N+](=O)[O-])cc12,139 to 140
5,COc1ccc(Nc2ccnc(Nc3cc(OC)c(OC)c(OC)c3)n2)cc1,210
6,CCOC(=O)c1cn(C2CC2)c2nc(N3C[C@@H](CNC(C)=O)[C@@H](Cl)C3)c(F)cc2c1=O (relative stereo),213 to 214
7,CCCCCCc1ccc(NC2=NCCS2)cc1,77 to 79
8,c1ccc(OC(Oc2cccc3ccccc23)Oc2cccc3ccccc23)cc1,88.5 to 90
9,O=C(Cc1cc(F)cc(F)c1)Nc1ccc(NCc2ccc(F)cc2)nc1N1CCOCC1,196 to 198
10,COc1cccc(CC(=O)N2CCN(c3cccc(C(F)(F)F)c3)CC2)c1,99 to 101
11,CCn1cc(C(=O)O)c(=O)c2cc(Cl)c(N3CCN(CCO)CC3)cc21,215
12,Cc1ccc2nc(NC(=N)N)[nH]c2c1C,122 to 124
13,CN(C)c1cc2c(C(F)(F)F)cccc2s1,70 to 73
14,CCCCC1=NC2(CCCC2)C(=O)N1Cc1ccc(-c2ccccc2S(=O)(=O)Nc2onc(C)c2C)c(CCC(C)C)c1,50 to 53
15,CN(c1cccc2cc(C3=NCC(CC(C)(C)O)S3)[nH]c12)S(=O)(=O)c1cccs1 (stereo unspecified),156 to 158
16,C[Si](C)(C)c1ccc(Cl)s1,68 to 69
17,CC(=O)c1ccc(Nc2nc(N)c(C(=O)c3ccccc3[N+](=O)[O-])s2)cc1,264 to 265
18,C1=C(CCCc2ccccc2)CCN(Cc2nc3ccccc3[nH]2)C1,131 to 132
19,COc1ccc2[nH]cc(CC3=CCCN(CCCC(=NO)c4ccc(F)cc4)C3)c2c1,129 to 130
20,CCCCCCCCCCCCCCC(O)C(O)C(N)CO (stereo unspecified),132 to 134
21,c1ccc(COc2cccc(-n3cnnn3)c2)cc1,85 to 86
22,O=C1NC(=O)C(Cc2ccc(NC(=O)c3cc(=O)c4cc(Br)ccc4o3)cc2)S1 (stereo unspecified),281 to 285
23,CC(C)(C)C(=O)C(CCCCOc1ccccc1)n1cncn1 (stereo unspecified),59 to 62
24,Oc1ccc(C2=C(c3ccc(OCCCCCI)cc3)c3ccc(O)cc3CCC2)cc1,202 to 204

row,SMILES,melting point [°C]
1,CN(Cc1cccc2c1C(=O)N(C1CCC(=O)NC1=O)C2=O)C(=O)C1CC1 (stereo unspecified),243 to 245
2,Cn1c(C(F)(F)F)cc(=O)n(-c2cc([N+](=O)[O-])c(C#N)cc2F)c1=O,155 to 157
3,CCOC(=O)c1sc2[nH]c(=O)c(=O)[nH]c2c1C,> 300
4,Cc1cc(C[C@H]2NC(=O)O[C@H]2c2ccc(F)cc2)cc(OC(F)(F)C(F)F)c1 (racemic),107 to 108
5,CCOC(=O)Cc1c(C(=O)OCC)sc2c1cc(C(=O)OCC)n2CC(=O)OCC,190
6,CNc1nc(-c2cccnc2)nc(NC)c1C(=O)Nc1ccc(C)c(C)c1,285 to 286
7,CCOC(=O)c1ncn2c1[C@@H]1CCCN1C(=O)c1cc(Cl)ccc1-2,242 to 244
8,CN1CCN(CCn2c3ccccc3c(=NN=C3NCCS3)c3ccccc32)CC1,204 to 205
9,CC(C)N(CCC(=O)OC1c2ccccc2C(=O)N1c1ccc2ccc(Cl)nc2n1)C(C)C (stereo unspecified),135
10,Fc1cccc2c(NCCc3ccc(Oc4ccc(C(F)(F)F)cn4)cc3)ncnc12,152
11,CCCN(CCC)Cc1csc(-c2ncn3c2CN(C)C(=O)c2ccccc2-3)n1,111 to 112
12,COc1ccc(-n2nc(Sc3cccc(Cl)c3)c(C)c(C#N)c2=O)cc1,123 to 124
13,Cc1ccc2c(c1)C1CN(CCCC(=O)c3ccc(F)cc3)CCC1N2 (stereo unspecified),154 to 158
14,CS(=O)(=O)Nc1ccccc1Sc1c(C(=O)O)sc2cc(OCc3cccnc3)ccc12,258 to 260
15,O=c1c2c[nH]c3c(c-2nn1-c1ccc(Cl)cc1)CN(CCc1ccccc1)CC3,256 to 259
16,Cc1cc(O)cc(C)c1C=O,190
17,COc1nc(SC)cc2cnc(-c3ccccc3)n12,134
18,Cn1c2c(c3ccccc31)OCC2=O,113 to 116
19,CCC(C)(C)c1ccc(S(=O)(=O)Nc2ncnc(OCCOc3ccc(Br)cn3)c2-c2ccc(C)cc2)cc1,154
20,CCOc1cc(-c2cc(C(F)F)n3ncc(C(=O)Nc4cccc(S(=O)(=O)NC(C)(C)CO)c4)c3n2)ccc1C(F)(F)F,250
21,O=C1C=CC(=O)N1c1ccc2c3c(cccc13)-c1ccccc1-2,185 to 186
22,CCCc1c2c(c([N+](=O)[O-])c3c(=O)cc(C(=O)OCC)oc13)CCCC2,140 to 142
23,CC(C)c1c(C=C(Cl)Cl)c(-c2ccc(F)cc2)c2n1CCCC2,118 to 120
24,O=[N+]([O-])c1ccc(N2CCCNCC2)cc1,115 to 116
